From the supplement of paper PMC12137928
Counter-ions that a name gives are not always drawn.

Tested on: HCT116
Details: 72 h
Summary of the method: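 After seeding at 250 cells per well in 1536-well plates, HCT116 cells were given 5 h to attach. CellTiter-Glo luminescence, scaled to 0% for vehicle and -100% for positive control, was pattern-corrected. Fitting with a four-parameter Hill model produced IC50 and maximal efficacy.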

Row | Compound | IC50 cell viability (ICRF193 0 nM) [µM] | IC50 cell viability (ICRF193 200 nM) [µM]
1 | O=C(CCc1ccc(O)cc1)c1c(O)cc(O)cc1O[C@@H]1O[C@H](CO)[C@@H](O)[C@H](O)[C@H]1O [Phlorizin] | > 45.8 | > 45.8
2 | CCN(CCCc1ccccc1)CCCc1ccccc1 [Alverine citrate] | > 45.8 | > 45.8
3 | CN[C@@H]1[C@@H](O[C@H]2O[C@H](CO)[C@@H](N)[C@H](O)[C@H]2O)OC2C[C@@H](N)[C@@H](O[C@H]3[C@H](O)[C@@H](O)[C@H](N)C[C@@H]3N)OC2[C@@H]1O (stereo partly specified) [APRAMYCIN SULFATE] | > 45.8 | > 45.8
4 | CN1C[C@H](C(=O)N[C@]2(C)O[C@@]3(O)[C@@H]4CCCN4C(=O)[C@H](Cc4ccccc4)N3C2=O)C[C@@H]2c3cccc4[nH]cc(c34)C[C@H]21 [Dihydroergotamine] | > 45.8 | > 45.8
5 | C[C@H](CCC(=O)O)[C@H]1CC[C@H]2[C@@H]3CC[C@@H]4C[C@H](O)CC[C@]4(C)[C@H]3C[C@H](O)[C@]12C [Sodium deoxycholate monohydrate] | > 45.8 | > 45.8
6 | Cc1oc(-c2ccccc2)nc1CCOc1ccc(CC2C(=O)NOC2=O)cc1 (stereo unspecified) [JTT-501] | > 45.8 | > 45.8
7 | NC[C@H]1CC[C@H](C(=O)Oc2ccc(CCC(=O)O)cc2)CC1 [Cetraxate hydrochloride] | > 45.8 | > 45.8
8 | OC[C@H]1O[C@@H](c2ccc(F)c(Cc3cc4ccccc4s3)c2)[C@H](O)[C@@H](O)[C@@H]1O [Ipragliflozin] | > 45.8 | > 45.8
9 | CC(=O)Oc1ccc(C(=C2CCCCC2)c2ccc(OC(C)=O)cc2)cc1 [Cyclofenil] | > 45.8 | > 45.8
10 | C=Cc1c(C)c2cc3nc(c(CC(=O)N[C@@H](CC(=O)O)C(=O)O)c4[nH]c(cc5nc(cc1[nH]2)C(C)=C5CC)c(C)c4C(=O)O)[C@@H](CCC(=O)O)[C@@H]3C [Talaporfin sodium] | > 45.8 | > 45.8
11 | CCN(CC)CCOC(=O)C(Cc1cccc2ccccc12)CC1CCCO1 (stereo unspecified) [Nafronyl oxalate] | > 45.8 | > 45.8
12 | C[N+](C)(C)CCOC(=O)CCC(=O)OCC[N+](C)(C)C [Succinylcholine chloride] | > 45.8 | > 45.8
13 | COc1cccc(C(=O)CCN[C@@H](C)[C@H](O)c2ccccc2)c1 [l-Oxyfedrine hydrochloride] | > 45.8 | > 45.8
14 | CC[C@H](C)[C@@H]1NC(=O)[C@H](Cc2ccc(O)cc2)NC(=O)[C@@H](N)CSSC[C@@H](C(=O)N2CCC[C@H]2C(=O)N[C@@H](CC(C)C)C(=O)NCC(N)=O)NC(=O)[C@H](CC(N)=O)NC(=O)[C@H](CCC(N)=O)NC1=O [Oxytocin] | > 45.8 | > 45.8
15 | CC(N)C(O)c1ccccc1 (stereo unspecified) [Phenylpropanolamine hydrochloride] | > 45.8 | > 45.8
16 | O=P(O)(O)C(Sc1ccc(Cl)cc1)P(=O)(O)O [Tiludronate disodium salt hydrate] | > 45.8 | > 45.8
17 | CN1C(=O)CC(c2ccccc2)C1=O (stereo unspecified) [Phensuximide] | > 45.8 | > 45.8
18 | CC(O)Cn1cnc2c1c(=O)n(C)c(=O)n2C (stereo unspecified) [Proxyphylline] | > 45.8 | > 45.8
19 | C=C1CC[C@@]2(O)[C@H]3Cc4ccc(O)c5c4[C@@]2(CCN3CC2CC2)[C@H]1O5 [Nalmefene] | > 45.8 | > 45.8
20 | Oc1cc(O)c(Cl)cn1 [Gimeracil] | > 45.8 | > 45.8
21 | CC(C)(CO)[C@@H](O)C(=O)NCCCO [Dexpanthenol] | > 45.8 | > 45.8
22 | CC(C)[N+](C)(CCC(C(N)=O)(c1ccccc1)c1ccccc1)C(C)C [Isopropamide] | > 45.8 | > 45.8

Row | Compound | IC50 cell viability (ICRF193 0 nM) [µM] | IC50 cell viability (ICRF193 200 nM) [µM]
23 | O=C(NN1CCCC1)NS(=O)(=O)c1ccc(Cl)cc1 [Glyclopyramide] | > 45.8 | > 45.8
24 | OC(CN1CCCCC1)c1cc(-c2ccccc2)on1 (stereo unspecified) [Perisoxal citrate] | > 45.8 | > 45.8
25 | CCCCCCCCCCCCOC(=O)CS(=O)(=O)O [SODIUM LAURYL SULFOACETATE] | > 45.8 | > 45.8
26 | CCc1oc2ccccc2c1C(=O)c1cc(Br)c(O)c(Br)c1 [Benzbromarone] | > 45.8 | > 45.8
27 | COP(=S)(OC)Oc1cc(Cl)c(Cl)cc1Cl [Fenchlorphos] | > 45.8 | > 45.8
28 | N[C@H](CCC(=O)O)C(=O)O [D-Glutamic acid] | > 45.8 | > 45.8
29 | NC(=O)NC(=O)Cc1ccccc1 [Phenacemide] | > 45.8 | > 45.8
30 | CCOCCn1c(N2CCCN(C)CC2)nc2ccccc21 [Emedastine difumarate] | > 45.8 | > 45.8
31 | NC(=O)C1(N2CCCCC2)CCN(CCCC(=O)c2ccc(F)cc2)CC1 [Pipamperone dihydrochloride] | > 45.8 | > 45.8
32 | CC(=O)OCC(CCn1cnc2cnc(N)nc21)COC(C)=O [Famciclovir] | > 45.8 | > 45.8
33 | CC(=O)NCc1c(I)c(NC(C)=O)c(I)c(C(=O)O)c1I [Iodamide] | > 45.8 | > 45.8
34 | CCN(CC)CC(=O)Nc1c(C)cccc1C [Lidocaine] | > 45.8 | > 45.8
35 | O=C(OOC(=O)c1ccccc1)c1ccccc1 [Benzoyl peroxide] | > 45.8 | > 45.8
36 | Cn1nnnc1SCC1=C(C(=O)O)N2C(=O)[C@@H](NC(=O)[C@H](OC=O)c3ccccc3)[C@H]2SC1 [Cefamandole (nafate)] | > 45.8 | > 45.8
37 | C=CCN.ClCC1CO1 (stereo unspecified) [Sevelamer Hydrochloride (Technical Grade)] | > 45.8 | > 45.8
38 | COC(=O)C1=C(C#N)NC(C)=C(C(=O)OC(C)C)C1c1cccc([N+](=O)[O-])c1 (stereo unspecified) [Nilvadipine] | > 45.8 | > 45.8
39 | CCOc1ccc(C[C@H]2NC(=O)CCSSC[C@@H](C(=O)N3CCC[C@H]3C(=O)N[C@@H](CCCN)C(=O)NCC(N)=O)NC(=O)[C@H](CC(N)=O)NC(=O)[C@H]([C@@H](C)O)NC(=O)[C@H]([C@@H](C)CC)NC2=O)cc1 [Atosiban] | > 45.8 | > 45.8
40 | NS(=O)(=O)c1cc2c(cc1Cl)CN(C1CCCCC1)C2=O [Chlorexolone] | > 45.8 | > 45.8
41 | CCCOc1ccc(C(=O)OCCN(CC)CC)cc1N [Proparacaine] | > 45.8 | > 45.8
42 | CC(COc1ccccc1)N(CCCl)Cc1ccccc1 (stereo unspecified) [Phenoxybenzamine hydrochloride] | > 45.8 | > 45.8
43 | C[N+](C)(C)CC(=O)O [Betaine] | > 45.8 | > 45.8
